From patent US7985771B2, “Furanone derivatives” (Monsanto Technology LLC, priority 2002, dated 2011)

Tested on: ELAM (E-selectin) expression in endothelial cells
Assay: E-selectin (ELAM) cell inflammation assay
Format: cell-based
Settings: LPS and IL-1β stimulation, read-out: reduction of expression of ELAM, EC50
Procedure: Endothelial-Leukocyte Adhesion Molecule (ELAM), also known as E-selectin, is expressed on the surface of endothelial cells. In this assay, lipopolysaccharide (LPS) and IL-1β are used to stimulate the expression of ELAM; test agents are tested for their abilities to reduce this expression, in accordance with studies showing that reduction of leukocyte adhesion to endothelial cell surface is associated with decreased cellular damage (e.g., Takada, M., Et al., Transplantation 64: 1520-25, 1997; Steinberg, J. B., et al., J. Heart Lung Trans. 13:306-313, 1994).
Endothelial cells may be selected from any of a number of sources and cultured according to methods known in the art; including, for example, coronary artery endothelial cells, human brain microvascular endothelial cells (HBMEC; Hess, D.C., et al., Neurosci. Left. 213(1): 37-40, 1996), or lung endothelial cells. Cells are conveniently cultured in 96-well plates. Cells are stimulated by adding a solution to each well containing 10 μg/ml LPS and 100 pg/ml IL-1β for 6 hours in the presence of test agent (specific concentrations and time may be adjusted depending on the cell type). Treatment buffer is removed and replaced with pre-warmed Fixing Solution® (100 μl/well) for 25 minutes at room temperature. Cells are then washed 3×, then incubated with Blocking Buffer (PBS+2% FBS) for 25 minutes at room temperature. Blocking Buffer containing Monoclonal E-Selectin Antibody (1:750, Sigma Catalog #S-9555) is added to each well. Plates are sealed and stored at 4° overnight. Plates are washed 4× with 160 μL Blocking Buffer per well. Second Antibody-HRP diluted 1:5000 in Blocking Buffer is then added (100 μL/well), and plates are incubated at room temperature (protected from light) for two hours. Plates are then washed 4× with Blocking Buffer before addition of 100 μL of ABTS Substrate solution at room temperature (Zymed, Catalog #00-2024). Wells are allowed to develop for 35 minutes, before measurement at 402 nm in a Fluoroskan® Reader with shake program for 10 seconds. Positive results are recorded as a decrease in ELAM concentration in tested wells, as compared to control wells.

Structure (SMILES)	EC50 [µM]
CCOC(=O)C1(C[S+]([O-])Cc2ccco2)OC(=O)C(O)=C1S(=O)(=O)Cc1ccco1 (stereo not drawn) [2-(Furan-2-ylmethanesulfinylmethyl)-3-(furan-2-ylmethanesulfonyl)-4-hydroxy-5-oxo-2,5-dihydro-furan-2-carboxylic acid ethyl ester]	≤ 30
CCOC(=O)C1OC(=O)C(O)=C1Sc1nc2ccccc2[nH]1 (stereo not drawn) [3-(1H-Benzoimidazol-2-ylsulfanyl)-4-hydroxy-5-oxo-2,5-dihydro-furan-2-carboxylic acid ethyl ester]	≤ 30
CCOC(=O)C1(CSc2ccccc2Cl)OC(=O)C(O)=C1Sc1ccccc1Cl (stereo not drawn) [3-(2-Chloro-phenylsulfanyl)-2-(2-chloro-phenylsulfanylmethyl)-4-hydroxy-5-oxo-2,5-dihydro-furan-2-carboxylic acid ethyl ester]	≤ 30
CN(C)CCSCC1(C(=O)O)OC(=O)C(O)=C1SCCN(C)C (stereo not drawn) [3-(2-Dimethylamino-ethylsulfanyl)-2-(2-dimethylamino-ethylsulfanylmethyl)-4-hydroxy-5-oxo-2,5-dihydro-furan-2-carboxylic acid]	≤ 30
CCOC(=O)C1(CSc2nc3cc(Cl)c(Cl)cc3[nH]2)OC(=O)C(O)=C1Sc1nc2cc(Cl)c(Cl)cc2[nH]1 (stereo not drawn) [3-(5,6-Dichloro-1H-benzoimidazol-2-ylsulfanyl)-2-(5,6-dichloro-1H-benzoimidazol-2-ylsulfanylmethyl)-4-hydroxy-5-oxo-2,5-dihydro-furan-2-carboxylic acid ethyl ester]	≤ 30
CCOC(=O)C1(CSc2nc3cc(Cl)ccc3s2)OC(=O)C(O)=C1Sc1nc2cc(Cl)ccc2s1 (stereo not drawn) [3-(5-Chloro-benzothiazol-2-ylsulfanyl)-2-(5-chloro-benzothiazol-2-ylsulfanylmethyl)-4-hydroxy-5-oxo-2,5-dihydro-furan-2-carboxylic acid ethyl ester]	≤ 30
O=C1OC(CSc2nc3ccccc3s2)(C(=O)O)C(Sc2nc3ccccc3s2)=C1O (stereo not drawn) [3-(Benzothiazol-2-ylsulfanyl)-2-(benzothiazol-2-ylsulfanylmethyl)-4-hydroxy-5-oxo-2,5-dihydro-furan-2-carboxylic acid]	≤ 30
CCCCCCSCC1(C(=O)OCC)OC(=O)C(O)=C1SCCCCCC (stereo not drawn) [3-Hexylsulfanyl-2-hexylsulfanylmethyl-4-hydroxy-5-oxo-2,5-dihydro-furan-2-carboxylic acid ethyl ester]	≤ 30
O=C1NC(=O)C2(OC(=O)C(O)=C2Sc2nc3ccccc3[nH]2)C(=O)N1 [4-(1H-Benzoimidazol-2-ylsulfanyl)-3-hydroxy-1-oxa-7,9-diaza-spiro[4,5]dec-3-ene-2,6,8,10-tetraone]	≤ 30
O=C1OC(CO)(CSc2nc3cc(S(=O)(=O)O)ccc3[nH]2)C(Sc2nc3cc(S(=O)(=O)O)ccc3[nH]2)=C1O (stereo not drawn) [4-(5-sulfo-1H-benzoimidazol-2-ylsulfanyl)-5-(5-sulfo-1H-benzoimidazol-2-ylsulfanylmethyl)-3-hydroxy-5-hydroxymethyl-5H-furan-2-one]	≤ 30
CCOC(=O)C1(CSCc2ccco2)OC(=O)C(OC(C)=O)=C1SCc1ccco1 (stereo not drawn) [4-Acetoxy-3-(furan-2-ylmethylsulfanyl)-2-(furan-2-ylmethylsulfanylmethyl)-5-oxo-2,5-dihydro-furan-2-carboxylic acid ethyl ester]	≤ 30
CCOC(=O)C1(CSCc2ccccc2)OC(=O)C(OC(C)=O)=C1SCc1ccccc1 (stereo not drawn) [4-Acetoxy-3-benzylsulfanyl-2-benzylsulfanylmethyl-5-oxo-2,5-dihydro-furan-2-carboxylic acid ethyl ester]	≤ 30
CCOC(=O)C1(CSc2nc3ccccc3n2CC)OC(=O)C(OCC)=C1Sc1nc2ccccc2n1CC (stereo not drawn) [4-Ethoxy-3-(1-ethyl-1H-benzoimidazol-2-ylsulfanyl)-2-(1-ethyl-1H-benzoimidazol-2-ylsulfanylmethyl)-5-oxo-2,5-dihydro-furan-2-carboxylic acid ethyl ester]	≤ 30
Cc1ccc2[nH]c(SC3=C(O)C(=O)OC3C(=O)OC3CC(C)CCC3C(C)C)nc2c1 (stereo not drawn) [4-Hydroxy-3-(5-methyl-1H-benzoimidazol-2-ylsulfanyl)-5-oxo-2,5-dihydro-furan-2-carboxylic acid 2-isopropyl-5-methyl-cyclohexyl ester]	≤ 30
CCOC(=O)C1(CSc2ccc3ccccc3c2)OC(=O)C(O)=C1Sc1ccc2ccccc2c1 (stereo not drawn) [4-Hydroxy-3-(naphthalen-2-ylsulfanyl)-2-(naphthalen-2-ylsulfanylmethyl)-5-oxo-2,5-dihydro-furan-2-carboxylic acid ethyl ester]	≤ 30
CCOC(=O)C1(CSc2nnnn2-c2ccccc2)OC(=O)C(O)=C1Sc1nnnn1-c1ccccc1 (stereo not drawn) [4-Hydroxy-5-oxo-3-(1-phenyl-1H-tetrazol-5-ylsulfanyl)-2-(1-phenyl-1H-tetrazol-5-ylsulfanylmethyl)-2,5-dihydro-furan-2-carboxylic acid ethyl ester]	≤ 30
CCOC(=O)C1(CSCCS(=O)(=O)O)OC(=O)C(O)=C1SCCS(=O)(=O)O (stereo not drawn) [4-Hydroxy-5-oxo-3-(2-sulfo-ethylsulfanyl)-2-(2-sulfo-ethylsulfanylmethyl)-2,5-dihydro-furan-2-carboxylic acid ethyl ester]	≤ 30
CCOC(=O)C1(CSc2ccnc3cc(C(F)(F)F)ccc23)OC(=O)C(O)=C1Sc1ccnc2cc(C(F)(F)F)ccc12 (stereo not drawn) [4-Hydroxy-5-oxo-3-(7-trifluoromethyl-quinolin-4-ylsulfanyl)-2-(7-trifluoromethyl-quinolin-4-ylsulfanylmethyl)-2,5-dihydro-furan-2-carboxylic acid ethyl ester]	≤ 30
CCOC(=O)C1(CSC(=S)N2CCCC2)OC(=O)C(O)=C1SC(=S)N1CCCC1 (stereo not drawn) [4-Hydroxy-5-oxo-3-(pyrrolidine-1-carbothioylsulfanyl)-2-(pyrrolidine-1-carbothioylsulfanylmethyl)-2,5-dihydro-furan-2-carboxylic acid ethyl ester]	≤ 30
CN(C)CC(=O)OCC1(CSc2nc3ccccc3[nH]2)OC(=O)C(O)=C1Sc1nc2ccccc2[nH]1 (stereo not drawn) [Dimethylamino-acetic acid 3-(1H-benzoimidazol-2-ylsulfanyl)-2-(1H-benzoimidazol-2-ylsulfanylmethyl)-4-hydroxy-5-oxo-2,5-dihydro-furan-2-ylmethyl ester]	≤ 30
CCOC(=O)[C@]1(CSCC(NC(=O)CCC(N)C(=O)O)C(=O)NCC(=O)O)OC(=O)C(O)=C1SCC(NC(=O)CCC(N)C(=O)O)C(=O)NCC(=O)O (stereo partly drawn) [R-3-[2-(4-Amino-4-carboxy-butyrylamino)-2-(carboxymethyl-carbamoyl)-ethylsulfanyl]-2-[2-(4-amino-4-carboxy-butyrylamino)-2-(carboxymethyl-carbamoyl)ethylsulfanylmethyl]-4-hydroxy-5-oxo-2,5-dihydro-furan-2-carboxylic acid ethyl ester]	≤ 30
